Assay results taken from PubChem BioAssay AID2060882 (Molecular Pharmacology Branch, DTP, NCI, 2025).
Values belong to the compound of their own block, whether it stands above or below them.

Test system: 898857-211-R-J1-PDC complex spheroids, growth % test/control
Assay: Anticancer human tumor 898857-211-R-J1-PDC patient-derived melanoma cell line growth inhibition [RAS]
Details: for IC50: curve of first compound; for viability, T/C: stronger effect = lower value
Procedure, shortened: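 Multi-cell-type spheroids: tumor cells plus HUVEC endothelial cells and mesenchymal stem cells. RAS-pathway inhibitors were combined with targeted agents, each dosed in half-log steps down from clinical Cmax, or from 10 microM when Cmax was unknown.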

[1] = second compound 0.000949 µM, first compound 0.0316 µM
[2] = second compound 0.000949 µM, first compound 0.1 µM
[3] = second compound 0.000949 µM, first compound 0.316 µM
[4] = second compound 0.000949 µM, first compound 1 µM
[5] = second compound 0.000949 µM, first compound 3.16 µM
[6] = second compound 0.000949 µM, first compound 10 µM
[7] = second compound 0.003 µM, first compound 0.0316 µM
[8] = second compound 0.003 µM, first compound 0.1 µM
[9] = second compound 0.003 µM, first compound 0.316 µM
[10] = second compound 0.003 µM, first compound 1 µM
[11] = second compound 0.003 µM, first compound 3.16 µM
[12] = second compound 0.003 µM, first compound 10 µM
[13] = second compound 0.00949 µM, first compound 0.0316 µM
[14] = second compound 0.00949 µM, first compound 0.1 µM
[15] = second compound 0.00949 µM, first compound 0.316 µM
[16] = second compound 0.00949 µM, first compound 1 µM
[17] = second compound 0.00949 µM, first compound 3.16 µM
[18] = second compound 0.00949 µM, first compound 10 µM
[19] = second compound 0.03 µM, first compound 0.0316 µM
[20] = second compound 0.03 µM, first compound 0.1 µM
[21] = second compound 0.03 µM, first compound 0.316 µM
[22] = second compound 0.03 µM, first compound 1 µM
[23] = second compound 0.03 µM, first compound 3.16 µM
[24] = second compound 0.03 µM, first compound 10 µM
[25] = second compound 0.0949 µM, first compound 0.0316 µM
[26] = second compound 0.0949 µM, first compound 0.1 µM
[27] = second compound 0.0949 µM, first compound 0.316 µM
[28] = second compound 0.0949 µM, first compound 1 µM
[29] = second compound 0.0949 µM, first compound 3.16 µM
[30] = second compound 0.0949 µM, first compound 10 µM
[31] = second compound 0.3 µM, first compound 0.0316 µM
[32] = second compound 0.3 µM, first compound 0.1 µM
[33] = second compound 0.3 µM, first compound 0.316 µM
[34] = second compound 0.3 µM, first compound 1 µM
[35] = second compound 0.3 µM, first compound 3.16 µM
[36] = second compound 0.3 µM, first compound 10 µM
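Further: spheroids exposed to compound for seven days before readout.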
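Wherever viability, T/C is given: 100% = DMSO vehicle control wells.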

IC50 (second compound 0.000949 µM): 121 nM | IC50 (second compound 0.003 µM): 168 nM | IC50 (second compound 0.00949 µM): 138 nM | IC50 (second compound 0.03 µM): 124 nM | IC50 (second compound 0.0949 µM): 188 nM | IC50 (second compound 0.3 µM): 144 nM
Compound: CC1(O)CCCC1n1c(=O)c(C(F)F)cc2cnc(NC3CCN(S(C)(=O)=O)CC3)nc21 (centres undefined) + CCn1c(-c2cc(N3CCN(C)CC3)cnc2C(C)OC)c2c3cc(ccc31)-c1csc(n1)CC(NC(=O)C1CC1C)C(=O)N1CCCC(N1)C(=O)OCC(C)(C)C2
viability, T/C [1]: 92.9% | viability, T/C [2]: 49.7% | viability, T/C [3]: 35.1% | viability, T/C [4]: 38.6% | viability, T/C [5]: 36.2% | viability, T/C [6]: 15.2% | viability, T/C [7]: 90.7% | viability, T/C [8]: 58.5% | viability, T/C [9]: 33.5% | viability, T/C [10]: 39.4% | viability, T/C [11]: 35.1% | viability, T/C [12]: 17.2% | viability, T/C [13]: 78.2% | viability, T/C [14]: 51% | viability, T/C [15]: 37.6% | viability, T/C [16]: 34.7% | viability, T/C [17]: 37.5% | viability, T/C [18]: 15.4% | viability, T/C [19]: 100% | viability, T/C [20]: 49.5% | viability, T/C [21]: 38.4% | viability, T/C [22]: 36.5% | viability, T/C [23]: 36.7% | viability, T/C [24]: 16.6% | viability, T/C [25]: 96% | viability, T/C [26]: 53.6% | viability, T/C [27]: 43.2% | viability, T/C [28]: 38.7% | viability, T/C [29]: 37.2% | viability, T/C [30]: 16.9% | viability, T/C [31]: 107% | viability, T/C [32]: 55.4% | viability, T/C [33]: 33.6% | viability, T/C [34]: 36.3% | viability, T/C [35]: 34.2% | viability, T/C [36]: 16%

IC50 (second compound 0.000949 µM): 594 nM | IC50 (second compound 0.003 µM): 589 nM | IC50 (second compound 0.00949 µM): 609 nM | IC50 (second compound 0.03 µM): 571 nM | IC50 (second compound 0.0949 µM): 615 nM | IC50 (second compound 0.3 µM): 604 nM
Compound: CCC(CC)c1cc(NC2CCC(N)C2)n2nccc2n1 (centres undefined) + CCn1c(-c2cc(N3CCN(C)CC3)cnc2C(C)OC)c2c3cc(ccc31)-c1csc(n1)CC(NC(=O)C1CC1C)C(=O)N1CCCC(N1)C(=O)OCC(C)(C)C2
viability, T/C [1]: 113% | viability, T/C [2]: 100% | viability, T/C [3]: 87.1% | viability, T/C [4]: 19.7% | viability, T/C [5]: 0.45% | viability, T/C [6]: 0.75% | viability, T/C [7]: 95.1% | viability, T/C [8]: 94% | viability, T/C [9]: 82% | viability, T/C [10]: 22.8% | viability, T/C [11]: 0.27% | viability, T/C [12]: 0.25% | viability, T/C [13]: 92.2% | viability, T/C [14]: 105% | viability, T/C [15]: 84.4% | viability, T/C [16]: 23.6% | viability, T/C [17]: 0.8% | viability, T/C [18]: 0.2% | viability, T/C [19]: 102% | viability, T/C [20]: 89.5% | viability, T/C [21]: 80.9% | viability, T/C [22]: 21.2% | viability, T/C [23]: 0.38% | viability, T/C [24]: 0.27% | viability, T/C [25]: 109% | viability, T/C [26]: 102% | viability, T/C [27]: 86.3% | viability, T/C [28]: 23.8% | viability, T/C [29]: 0.81% | viability, T/C [30]: 0.19% | viability, T/C [31]: 104% | viability, T/C [32]: 105% | viability, T/C [33]: 84.8% | viability, T/C [34]: 22.9% | viability, T/C [35]: 0.32% | viability, T/C [36]: 0.26%
